± gives the standard deviation of the averaged measurements.
Columns and labels:
[1] = compound: Cc1ccc(-c2cc(C(F)(F)F)nn2-c2ccc(S(N)(=O)=O)cc2)cc1 [CELECOXIB]; assay: surviving fraction relative to DMSO-only wells; higher = less growth inhibition; conditions: exposure time: 5 days
Method in brief: (§1)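 Viability was scored with CellTiter-Glo luminescence and normalised to the median of DMSO-only wells as surviving fraction. Beforehand, log-phase tumour cell lines were seeded at 250–500 cells per well in 384-well plates, allowed 24 hours, and exposed continuously for five days to inhibitors at 0.5, 1, 5, 10, 50, 100, 500 and 1000 nM. Only lines whose three screens gave replicate Pearson r >0.7 and median Z' >0.3 were kept.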

[2] = compound: CC(=O)NCC(=O)N1[C@@H]2CC[C@H]1c1ccc(Nc3ncc(C(F)(F)F)c(NC4CCC4)n3)cc12; assay: as above; conditions: exposure time: 5 days
Method in brief: as §1

Q: Which results are given for HELA CERVIX?
A: surviving fraction ([1]; 0.5 nM): 1.09 ± 0.049; surviving fraction ([1]; 1 nM): 1.11 ± 0.047; surviving fraction ([1]; 5 nM): 1.05 ± 0.058; surviving fraction ([1]; 10 nM): 1.05 ± 0.039; surviving fraction ([1]; 50 nM): 1.09 ± 0.018; surviving fraction ([1]; 100 nM): 1.16 ± 0.044; surviving fraction ([1]; 500 nM): 1.14 ± 0.033; surviving fraction ([1]; 1000 nM): 1.13 ± 0.049; surviving fraction ([2]; 0.5 nM): 0.991 ± 0.05; surviving fraction ([2]; 1 nM): 1.02 ± 0.092; surviving fraction ([2]; 5 nM): 0.977 ± 0.051; surviving fraction ([2]; 10 nM): 0.956 ± 0.048; surviving fraction ([2]; 50 nM): 0.697 ± 0.053; surviving fraction ([2]; 100 nM): 0.4 ± 0.052; surviving fraction ([2]; 500 nM): 0.168 ± 0.03; surviving fraction ([2]; 1000 nM): 0.142 ± 0.015

Q: Which surviving fraction ([1]; 0.5 nM) does the source give for MDAMB453 BREAST here?
A: 1.07 ± 0.076

Q: And the surviving fraction ([1]; 1 nM)?
A: 1.1 ± 0.079

Q: What about the surviving fraction ([1]; 5 nM) of the same test system?
A: 1.09 ± 0.072

Q: And the surviving fraction ([1]; 10 nM)?
A: 1.18 ± 0.1

Q: What about the surviving fraction ([1]; 50 nM) of the same test system?
A: 1.14 ± 0.021

Q: And the surviving fraction ([1]; 100 nM)?
A: 1.12 ± 0.03

Q: What about the surviving fraction ([1]; 500 nM) of the same test system?
A: 1.04 ± 0.044

Q: What about the surviving fraction ([1]; 1000 nM) of the same test system?
A: 1.09 ± 0.04

Q: And the surviving fraction ([2]; 0.5 nM)?
A: 1.03 ± 0.021

Q: What about the surviving fraction ([2]; 1 nM) of the same test system?
A: 1.05 ± 0.034

Q: What about the surviving fraction ([2]; 5 nM) of the same test system?
A: 1.01 ± 0.046

Q: What about the surviving fraction ([2]; 10 nM) of the same test system?
A: 1.07 ± 0.032

Q: And the surviving fraction ([2]; 50 nM)?
A: 0.794 ± 0.091

Q: What about the surviving fraction ([2]; 100 nM) of the same test system?
A: 0.725 ± 0.094

Q: What about the surviving fraction ([2]; 500 nM) of the same test system?
A: 0.541 ± 0.038

Q: What about the surviving fraction ([2]; 1000 nM) of the same test system?
A: 0.413 ± 0.015

Q: How did the surviving fraction ([1]; 0.5 nM) turn out when HCC202 BREAST was run?
A: 1.15 ± 0.041

Q: What about the surviving fraction ([1]; 1 nM) of the same test system?
A: 1.14 ± 0.04

Q: And the surviving fraction ([1]; 5 nM)?
A: 1.2 ± 0.33

Q: And the surviving fraction ([1]; 10 nM)?
A: 1.04 ± 0.09

Q: And the surviving fraction ([1]; 50 nM)?
A: 1.06 ± 0.27

Q: And the surviving fraction ([1]; 100 nM)?
A: 1.13 ± 0.18

Q: And the surviving fraction ([1]; 500 nM)?
A: 1.36 ± 0.39

Q: And the surviving fraction ([1]; 1000 nM)?
A: 1.12 ± 0.16

Q: And the surviving fraction ([2]; 0.5 nM)?
A: 1.54 ± 0.18

Q: And the surviving fraction ([2]; 1 nM)?
A: 1.09 ± 0.18

Q: And the surviving fraction ([2]; 5 nM)?
A: 1.44 ± 0.13

Q: And the surviving fraction ([2]; 10 nM)?
A: 1.5 ± 0.21

Q: What about the surviving fraction ([2]; 50 nM) of the same test system?
A: 1.46 ± 0.16

Q: What about the surviving fraction ([2]; 100 nM) of the same test system?
A: 1.32 ± 0.4

Q: What about the surviving fraction ([2]; 500 nM) of the same test system?
A: 1.32 ± 0.15

Q: And the surviving fraction ([2]; 1000 nM)?
A: 1.08 ± 0.26

Q: Which results are given for HCC70 BREAST?
A: surviving fraction ([1]; 0.5 nM): 1.07 ± 0.049; surviving fraction ([1]; 1 nM): 1.045 ± 0.0081; surviving fraction ([1]; 5 nM): 1.08 ± 0.067; surviving fraction ([1]; 10 nM): 1.13 ± 0.091; surviving fraction ([1]; 50 nM): 1.06 ± 0.044; surviving fraction ([1]; 100 nM): 1.04 ± 0.099; surviving fraction ([1]; 500 nM): 1.2 ± 0.14; surviving fraction ([1]; 1000 nM): 1.18 ± 0.038; surviving fraction ([2]; 0.5 nM): 0.976 ± 0.052; surviving fraction ([2]; 1 nM): 1.03 ± 0.057; surviving fraction ([2]; 5 nM): 0.982 ± 0.099; surviving fraction ([2]; 10 nM): 1.01 ± 0.033; surviving fraction ([2]; 50 nM): 0.864 ± 0.051; surviving fraction ([2]; 100 nM): 0.488 ± 0.026; surviving fraction ([2]; 500 nM): 0.243 ± 0.052; surviving fraction ([2]; 1000 nM): 0.203 ± 0.036

Q: For SKBR3 BREAST, which surviving fraction ([1]; 0.5 nM) is on record?
A: 1.15 ± 0.096

Q: What about the surviving fraction ([1]; 1 nM) of the same test system?
A: 1.11 ± 0.11

Q: And the surviving fraction ([1]; 5 nM)?
A: 1.019 ± 0.0061

Q: And the surviving fraction ([1]; 10 nM)?
A: 1.02 ± 0.085

Q: What about the surviving fraction ([1]; 50 nM) of the same test system?
A: 0.999 ± 0.091

Q: What about the surviving fraction ([1]; 100 nM) of the same test system?
A: 1.07 ± 0.042

Q: What about the surviving fraction ([1]; 500 nM) of the same test system?
A: 0.996 ± 0.17

Q: And the surviving fraction ([1]; 1000 nM)?
A: 1.08 ± 0.063

Q: What about the surviving fraction ([2]; 0.5 nM) of the same test system?
A: 1.09 ± 0.12

Q: What about the surviving fraction ([2]; 1 nM) of the same test system?
A: 0.942 ± 0.2

Q: What about the surviving fraction ([2]; 5 nM) of the same test system?
A: 1.07 ± 0.18

Q: And the surviving fraction ([2]; 10 nM)?
A: 1 ± 0.16

Q: And the surviving fraction ([2]; 50 nM)?
A: 0.762 ± 0.06

Q: And the surviving fraction ([2]; 100 nM)?
A: 0.892 ± 0.14

Q: What about the surviving fraction ([2]; 500 nM) of the same test system?
A: 1.13 ± 0.039

Q: What about the surviving fraction ([2]; 1000 nM) of the same test system?
A: 0.865 ± 0.17

Q: Which surviving fraction ([1]; 0.5 nM) does the source give for HCC78 LUNG here?
A: 0.815 ± 0.2

Q: What about the surviving fraction ([1]; 1 nM) of the same test system?
A: 0.894 ± 0.038

Q: And the surviving fraction ([1]; 5 nM)?
A: 0.89 ± 0.28

Q: What about the surviving fraction ([1]; 10 nM) of the same test system?
A: 1.05 ± 0.18

Q: What about the surviving fraction ([1]; 50 nM) of the same test system?
A: 0.886 ± 0.14

Q: And the surviving fraction ([1]; 100 nM)?
A: 1.05 ± 0.082

Q: What about the surviving fraction ([1]; 500 nM) of the same test system?
A: 0.973 ± 0.09

Q: And the surviving fraction ([1]; 1000 nM)?
A: 0.801 ± 0.028

Q: And the surviving fraction ([2]; 0.5 nM)?
A: 0.885 ± 0.16

Q: What about the surviving fraction ([2]; 1 nM) of the same test system?
A: 0.798 ± 0.052

Q: And the surviving fraction ([2]; 5 nM)?
A: 0.935 ± 0.13

Q: What about the surviving fraction ([2]; 10 nM) of the same test system?
A: 0.878 ± 0.28

Q: And the surviving fraction ([2]; 50 nM)?
A: 0.735 ± 0.07

Q: What about the surviving fraction ([2]; 100 nM) of the same test system?
A: 0.188 ± 0.064

Q: And the surviving fraction ([2]; 500 nM)?
A: 0.236 ± 0.082

Q: What about the surviving fraction ([2]; 1000 nM) of the same test system?
A: 0.298 ± 0.075

Q: NOS1 BONE was tested. Which surviving fraction ([1]; 0.5 nM) did it give?
A: 1.18 ± 0.12

Q: What about the surviving fraction ([1]; 1 nM) of the same test system?
A: 1.15 ± 0.34

Q: And the surviving fraction ([1]; 5 nM)?
A: 1.16 ± 0.071

Q: And the surviving fraction ([1]; 10 nM)?
A: 1.25 ± 0.051

Q: And the surviving fraction ([1]; 50 nM)?
A: 1.18 ± 0.019

Q: And the surviving fraction ([1]; 100 nM)?
A: 1.21 ± 0.054

Q: What about the surviving fraction ([1]; 500 nM) of the same test system?
A: 1.12 ± 0.11

Q: And the surviving fraction ([1]; 1000 nM)?
A: 1.16 ± 0.075

Q: And the surviving fraction ([2]; 0.5 nM)?
A: 1.25 ± 0.038

Q: And the surviving fraction ([2]; 1 nM)?
A: 1.29 ± 0.1

Q: What about the surviving fraction ([2]; 5 nM) of the same test system?
A: 1.53 ± 0.21

Q: And the surviving fraction ([2]; 10 nM)?
A: 1.21 ± 0.095

Q: What about the surviving fraction ([2]; 50 nM) of the same test system?
A: 0.84 ± 0.062

Q: And the surviving fraction ([2]; 100 nM)?
A: 0.724 ± 0.055

Q: What about the surviving fraction ([2]; 500 nM) of the same test system?
A: 0.302 ± 0.017

Q: What about the surviving fraction ([2]; 1000 nM) of the same test system?
A: 0.219 ± 0.028

Source: the supplement of paper PMC6045584
